Consider six compounds from patent US6544957B2, “Methods and reagents for facilitating transcription” (The Johns Hopkins University, priority 2000, dated 2003).

Structures are written as SMILES. “And” between values parts separate entries of the source, which are not always exact repeats. Equal values may be shown once.

The conditions of data set [1]: Richon et al., 1996; cited from earlier work.
For data set [2], the system named is p6SBE-luc reporter construct in PANC-1 cells. The data set is described as follows: Compound screening, luciferase activity in PANC-1 cells with stably integrated p6SBE-luc. The note with it: 2 μg/ml compound, 16-18 hours, initial library screen. The data set is classed as cell-based. The protocol: (§1) Cell Lines. PANC-1 and MDA-MB-468 cell lines were purchased from ATCC (Manassas, Va.). Stable transfectants were generated by co-transfection of pcDNA3.1 (Invitrogen, Carlsbad, Calif.) and p6SBE-luc into PANC-1 cells with LipofectAMINE (Life Technologies, Inc.). Transfected cells were diluted and selected in multiple 96-well plates in the presence of 0.5 mg/ml of G418 (Life Technologies, Inc.). Single clones were expanded and tested for basal luciferase expression and TGFβ inducibility. One clone was chosen on basis of high (6 to 8-fold) induction of luciferase by 0.5 ng/ml TGFβ (R&D Systems, Minneapolis, Minn.).
Compound Screening. Each compound of the library (DIVERSet, ChemBridge, San Diego, Calif.) was dissolved and diluted in DMSO at 1 mg/ml. Cells were plated in 96-well cluster plates (Corning, Cambridge, Mass.) and incubated with each compound, after further dilution in culture media to the final concentration of 2 μg/ml, for 16-18 hours. Luciferase activity was measured upon addition of Steady-Glo substrate (Promega). Up to sixteen 96-well plates could be assembled in a Wallac Trilux photodetector (Wallac, Gaithersburg, Md.) for measurement. All readouts from each experiment were compared to the control wells, and a number reflecting the relative increase in luciferase activity was calculated for each chemical using Excel (Microsoft, Redmond, Wash.) spreadsheets. […]

For data set [3], the system named is PANC-1 cells having stably integrated p6SBE-luc. As to the kind of experiment: Dose response of transcriptional facilitation in stably transfected cell line (FIG. 3). The class given is cell-based. The conditions noted are these: for transcriptional facilitation (in words): at concentrations corresponding to scriptaid; for optimal concentration for transcriptional facilitation: PANC-1 stably integrated p6SBE-luc, luciferase. The method, then: FIG. 3. Dose responses of TSA and scriptaid transcriptional facilitation in a stably transfected cell line. Luciferase activity was determined using PANC-1 cells having stably integrated p6SBE-luc at the indicated concentration of compounds. Data represent averages of two to three experiments and SEM.
as §1
Compound Screening. Each compound of the library (DIVERSet, ChemBridge, San Diego, Calif.) was dissolved and diluted in DMSO at 1 mg/ml. Cells were plated in 96-well cluster plates (Corning, Cambridge, Mass.) and incubated with each compound, after further dilution in culture media to the final concentration of 2 μg/ml, for 16-18 hours. Luciferase activity was measured upon addition of Steady-Glo substrate (Promega). Up to sixteen 96-well plates could be assembled in a Wallac Trilux photodetector (Wallac, Gaithersburg, Md.) for measurement. All readouts from each experiment were compared to the control wells, and a number reflecting the relative increase in luciferase activity was calculated for each chemical using Excel (Microsoft, Redmond, Wash.) spreadsheets.
The entire library, consisting of 16,320 compounds, was screened. Eleven compounds were associated with a two to five-fold induction of luciferase activity, and one with a twelve-fold activation (FIG. 1). Further studies on the latter compound (ID#217444, 6-(1,3-Dioxo-1H,3H-benzo[de]isoquinolin-2-yl)-hexanoic acid hydroxyamide, we termed scriptaid) are reported here (FIG. 2). […] The results were validated by repeated determinations in the screening assay and subsequently by a dose-response curve performed on PANC-1 cells containing stably integrated p6SBE-luc (FIG. 3).

Data set [4] concerns histone deacetylase (HDAC) in PANC-1 cells. As to the kind of experiment: Immunoblotting assay of histone acetylation. The data set is classed as cell-based.
Experimental: PANC-1 cells were untreated or treated with scriptaid (2 μg/ml) or TSA (0.1 or 0.32 μg/ml). Acetylated histones were detected by anti-human acetyl-lysine antibody immunoblot. Immunoblotting Assay of Histone Acetylation. PANC-1 cells were treated with 2 μg/ml of scriptaid (ChemBridge), 0.1 μg/ml, or 0.32 μg/ml of trichostatin A (Sigma, St. Louis, Mo.) for 18 hours in culture media. Treated and untreated cells were harvested with trypsin-EDTA (Life Technologies, Inc.), washed with phosphate-buffered saline (Life Technologies, Inc.), and resuspended in a protein sample buffer. Protein concentration was determined by BCA protein assay reagents (Pierce, Rockford, Ill.). Fifty micrograms of proteins from each sample was loaded on a 12% denaturing polyacrylamide gel. Proteins were subsequently transferred to a nylon membrane (Imobilon P, Millipore, Burlington, Mass.) using Milliblot-Graphite Electroblotter I (Millipore). The nylon membrane was incubated with rabbit anti-human acetyl-lysine antibody (#06-933, Upstate Biotechnology, Waltham, Mass.) at 1:1000 dilution, followed by goat anti-rabbit antibody coupled to horseradish peroxidase (Pierce) at 1:2000 dilution, developed with SuperSignal substrates (Pierce), and detected by film (BioMax, Kodak, Rochester, N.Y.).
Data set [5] concerns PANC-1 and MDA-MB-468 cells. The data set is described as follows: Survival curve, trypan-blue exclusion. The data set is classed as cell-based. The note with it: 18-hour incubation; for cytotoxicity (in words): at optimal concentration for transcriptional facilitation. The method, then: FIGS. 5A to 5B. Effects of compounds on cell survival. […] Data represent averages of two to four experiments and SEM. FIG. 5A, scriptaid. FIG. 5B, TSA.
Survival Curve. Equal numbers of cells were plated in six-well plates in the absence or presence of scriptaid or TSA at different concentrations. After 18 hours of incubation, cell numbers were determined by trypan-blue exclusion. Percent survival of the treated cells was calculated in comparison to the untreated sample, which was considered to represent 100%.

Data set [6] deals with p6SBE-luc, p6MBE-luc, pCMVβ, pUB6/V5-lacZ reporters in PANC-1 or MDA-MB-468 cells. As to the kind of experiment: Transient transfection reporter assay (luciferase, β-gal). The conditions noted are these: 18 hours; for facilitation of reporter expression after transient transfection (in words): SV40, CMV and ubiquitin c promoters, PANC-1 or MDA-MB-468. The class given is cell-based. The method, then:
FIGS. 7A-7C. Scriptaid and TSA transcriptional facilitation after transient transfection. PANC-1 or MDA-MB-468 cells were transiently transfected for 4 hours with constructs containing various promoters. Transfected cells were untreated or treated with scriptaid or TSA for 18 hours. Data represent averages of two to five experiments and SEM. FIG. 7A, SV40 promoter and luciferase reporter gene. FIG. 7B, CMV promoter and β-gal reporter gene. FIG. 7C, human ubiquitin c promoter and β-gal reporter gene.
Transfection Assay. Each transient transfection experiment was done in duplicate in six-well plates. LipofectAMINE (Life Technologies, Inc.) was used as directed by the manufacturer. The DNA-LipofectAMINE mixture was removed from cells after 4-5 hours of transfection, and culture media with or without compounds or TGFβ was then added to the cells. Sixteen to eighteen hours from the start of the transfection, cell lysates were prepared with Reporter Lysis Buffer (Promega) for luciferase and β-gal assays. Luciferase was measured using The Luciferase Assay System (Promega) and β-gal assay was performed as previously described (Dai et al., 1998). Studies of the SV40 promoter included all experiments done with p6SBE-luc, p6MBE-luc, and pGL3-control (Promega) plasmids. Studies of the CMV promoter were done using pCMVβ. (Clonetech, Palo Alto, Calif.), and those of human ubiquitin c promoter were done using pUB6/V5-lacZ (Invitrogen).
For orientation: A reporter such as luciferase makes a cellular process visible.

Data set [7] concerns PANC-1 cells containing the stably integrated p6SBE-luc. As to the kind of experiment: TGFβ/Smad4 signal transduction assay with stably integrated p6SBE-luc (FIGS. 6B, 6C). The class given is cell-based. The conditions noted are these: absence or presence of TGFβ 1 ng/ml. The method, then: FIGS. 6A-6C. Proportional effects of scriptaid and TSA on the TGFβ/Smad4 signal transduction assay. FIG. 6A, p6SBE-luc or p6MBE-luc was cotransfected with pCMV-β into PANC-1 cells. Transfected cells were untreated or treated with TGFβor/and scriptaid for 18 hours. […] Relative luciferase induction was determined after normalization to the TGFβ-non-inducible pCMV-β control, itself subject to scriptaid facilitation (see FIG. 7). Data represent averages of two experiments and SEM. FIG. 6B, total luciferase induction in PANC-1 cells containing the stably integrated p6SBE-luc after treatment with scriptaid or TSA in the absence or presence of TGFβ (1 ng/ml). FIG. 6C, relative luciferase induction in PANC-1 cells containing the stably integrated p6SBE-luc after treatment with scriptaid or TSA in the absence or presence of TGFβ (1 ng/ml ) determined after normalization to the values observed with the HDAC inhibitor alone.
Cell Lines. PANC-1 and MDA-MB-468 cell lines were purchased from ATCC (Manassas, Va.). Stable transfectants were generated by co-transfection of pcDNA3.1 (Invitrogen, Carlsbad, Calif.) and p6SBE-luc into PANC-1 cells with LipofectAMINE (Life Technologies, Inc.). Transfected cells were diluted and selected in multiple 96-well plates in the presence of 0.5 mg/ml of G418 (Life Technologies, Inc.). […]

In the case of `CC(=O)NCCCCCCNC(C)=O` [HMBA], in data set [1], the optimal concentration reported is 5000 µM.
Consider `O=C(/C=C/c1cccc(C(=O)NO)c1)NO` [CBHA], for which, in data set [1], the optimal concentration reported was 4 µM.
`O=C(CCCN1C(=O)c2cccc3cccc(c23)C1=O)NO` [nullscript, 4-(1,3-Dioxo-1H,3H-benzo[de]isoquinolin-2-yl)-N-hydroxy-butyramide]: the “induction of luciferase activity relative to control wells” value in data set [2] is reported as “did not induce”. The “transcriptional facilitation (in words)” value in data set [3] was “inactive”; in data set [3] (listed as Nullscipt), “does not facilitate transcription”.
For the compound `O=C(CCCCCCC(=O)Nc1ccccc1)NO` [SAHA], in data set [1], the optimal concentration reported was 2 µM.
Take `CC(/C=C/C(=O)NO)=C\[C@@H](C)C(=O)c1ccc(N(C)C)cc1` [TSA, trichostatin A]: the “inhibition of endogenous histone deacetylation (in words)” value in data set [4] (TSA 0.1 μg/ml, compared with scriptaid 2 μg/ml and TSA 0.32 μg/ml) is given as “less efficient”. Also, in data set [5], the “cytotoxicity (in words)” value is “cytotoxic for two cell lines”. Further, in data set [5] (minimal toxic concentration 0.1 μg/ml), the survival is reported as 85-90%. For the same compound, the “facilitation of reporter expression after transient transfection (in words)” value in data set [6] is listed as “less predictable at its optimal concentration”. Besides, the “effect on TGFβ-stimulated induction of integrated p6SBE-luc (in words)” value in data set [7] is “proportionally enhance the induction of an integrated p6SBE-luc construct without interfering with TGFβ-stimulated transcriptional responses”.
`O=C(CCCCCN1C(=O)c2cccc3cccc(c23)C1=O)NO` [scriptaid, 6-(1,3-Dioxo-1H,3H-benzo[de]isoquinolin-2-yl)-hexanoic acid hydroxyamide]: the “induction of luciferase activity relative to control wells” value in data set [2] is recorded as “twelve-fold”. Further, the “optimal concentration for transcriptional facilitation” value in data set [3] was 6 to 8 µM; in data set [3] (listed as Scriptaid), 2-2.5 μg/ml and 6-8 μM. In data set [4] (cultured cells, scriptaid 2 μg/ml, 18 hours, anti-acetyl-lysine immunoblot), the “increase in histone acetylation” value is given as “greater than 100 fold”. For the same compound, in data set [5] (at its optimal concentration for transcriptional facilitation, cell line not named), the survival was 80%. Further, the “cytotoxicity (in words)” value in data set [5] is listed as “not lethal to one cell line”. In addition, the “facilitation of reporter expression after transient transfection (in words)” value in data set [6] is reported as “capable of inducing high expression”. The “increase of transcription of all three reporters (p6SBE-luc, p6MBE-luc, pCMVβ)” value in data set [6] (transient cotransfection in PANC-1 cells) is reported as “twelve-fold”. In data set [7], the “effect on TGFβ-stimulated induction of integrated p6SBE-luc (in words)” value is “proportionally enhance the induction of an integrated p6SBE-luc construct without interfering with TGFβ-stimulated transcriptional responses”.
